# Experimental data: the kinase profiling compilation of Christmann-Franck et al. (2016)
# Legend:
# Conditions in all cases: compound 10.0 µM
# IKBKE (human) = IKBKE (human) (UniProt Q14164)
# SRPK3 (human) = SRPK3 (human) (UniProt Q9UPE1)
# MAP3K10 (human) = MAP3K10 (human) (UniProt Q02779)
# BMPR1A (human) = BMPR1A (human) (UniProt P36894)
# ERBB4 (human) = ERBB4 (human) (UniProt Q15303)
# PHKG2 (human) = PHKG2 (human) (UniProt P15735)
# MAP3K4 (human) = MAP3K4 (human) (UniProt Q9Y6R4)
# ACVR1B (human) = ACVR1B (human) (UniProt P36896)
# WEE2 (human) = WEE2 (human) (UniProt P0C1S8)
# CDK9 (human) = CDK9 (human) (UniProt P50750)
# RPS6KB1 (human) = RPS6KB1 (human) (UniProt P23443)
# IRAK1 (human) = IRAK1 (human) (UniProt P51617)
# PRKD3 (human) = PRKD3 (human) (UniProt O94806)
# LATS1 (human) = LATS1 (human) (UniProt O95835)
# AURKA (human) = AURKA (human) (UniProt O14965)
# MAP2K5 (human) = MAP2K5 (human) (UniProt Q13163)
# RPS6KA1 KD1 (human) = RPS6KA1 KD1 (human) (UniProt Q15418)
# MAP4K5 (human) = MAP4K5 (human) (UniProt Q9Y4K4)
# RIOK2 (human) = RIOK2 (human) (UniProt Q9BVS4)
# PLK1 (human) = PLK1 (human) (UniProt P53350)
# TLK2 (human) = TLK2 (human) (UniProt Q86UE8)
# CDKL5 (human) = CDKL5 (human) (UniProt O76039)
# MAPK1 (human) = MAPK1 (human) (UniProt P28482)
# ROCK1 (human) = ROCK1 (human) (UniProt Q13464)
# PLK2 (human) = PLK2 (human) (UniProt Q9NYY3)
# STK35 (human) = STK35 (human) (UniProt Q8TDR2)
# CLK4 (human) = CLK4 (human) (UniProt Q9HAZ1)
# PRKD2 (human) = PRKD2 (human) (UniProt Q9BZL6)
# ALK (human) = ALK (human) (UniProt Q9UM73)
# CAMK1G (human) = CAMK1G (human) (UniProt Q96NX5)
# CHEK2 (human) = CHEK2 (human) (UniProt O96017)
# [1] = tested on: KIT (human), P10721 [L576P]
# PIK3C2G (human) = PIK3C2G (human) (UniProt O75747)
# TRPM6 (human) = TRPM6 (human) (UniProt Q9BX84)
# MAP2K1 (human) = MAP2K1 (human) (UniProt Q02750)
# SLK (human) = SLK (human) (UniProt Q9H2G2)
# MYLK (human) = MYLK (human) (UniProt Q15746)
# BTK (human) = BTK (human) (UniProt Q06187)
# PIP5K1A (human) = PIP5K1A (human) (UniProt Q99755)
# CSNK1G1 (human) = CSNK1G1 (human) (UniProt Q9HCP0)
# EPHB2 (human) = EPHB2 (human) (UniProt P29323)
# Chain of EPHB2 (human) (P29323 whole entry, looked up): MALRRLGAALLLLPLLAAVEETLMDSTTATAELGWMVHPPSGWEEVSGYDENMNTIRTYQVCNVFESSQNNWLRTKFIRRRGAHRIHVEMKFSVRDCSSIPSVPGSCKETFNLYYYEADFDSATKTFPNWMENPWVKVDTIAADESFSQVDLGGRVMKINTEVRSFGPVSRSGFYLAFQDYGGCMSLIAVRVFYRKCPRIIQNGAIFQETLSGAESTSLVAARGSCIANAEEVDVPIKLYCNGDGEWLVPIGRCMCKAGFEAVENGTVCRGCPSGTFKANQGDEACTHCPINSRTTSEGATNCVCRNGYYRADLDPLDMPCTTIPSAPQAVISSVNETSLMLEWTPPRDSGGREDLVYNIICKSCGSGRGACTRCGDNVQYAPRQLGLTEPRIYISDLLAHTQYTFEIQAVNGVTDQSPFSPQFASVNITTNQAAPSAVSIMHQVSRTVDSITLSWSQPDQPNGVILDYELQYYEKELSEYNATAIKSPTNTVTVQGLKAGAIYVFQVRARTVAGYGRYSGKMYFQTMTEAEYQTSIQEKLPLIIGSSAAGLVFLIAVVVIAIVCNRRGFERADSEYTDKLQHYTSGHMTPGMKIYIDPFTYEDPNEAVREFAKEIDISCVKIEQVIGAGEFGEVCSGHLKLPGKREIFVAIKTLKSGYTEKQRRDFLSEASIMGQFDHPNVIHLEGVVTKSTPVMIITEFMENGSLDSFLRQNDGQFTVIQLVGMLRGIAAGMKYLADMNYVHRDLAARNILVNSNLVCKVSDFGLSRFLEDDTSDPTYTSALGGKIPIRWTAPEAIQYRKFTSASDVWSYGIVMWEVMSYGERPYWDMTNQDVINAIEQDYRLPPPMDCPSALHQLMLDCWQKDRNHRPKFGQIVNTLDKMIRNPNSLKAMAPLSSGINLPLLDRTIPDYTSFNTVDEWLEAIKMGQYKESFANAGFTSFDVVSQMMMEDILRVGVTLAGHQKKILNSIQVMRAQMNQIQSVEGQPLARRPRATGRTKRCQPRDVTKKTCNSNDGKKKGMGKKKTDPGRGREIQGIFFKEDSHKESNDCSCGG
# Chain of BMPR1A (human) (P36894 whole entry, looked up): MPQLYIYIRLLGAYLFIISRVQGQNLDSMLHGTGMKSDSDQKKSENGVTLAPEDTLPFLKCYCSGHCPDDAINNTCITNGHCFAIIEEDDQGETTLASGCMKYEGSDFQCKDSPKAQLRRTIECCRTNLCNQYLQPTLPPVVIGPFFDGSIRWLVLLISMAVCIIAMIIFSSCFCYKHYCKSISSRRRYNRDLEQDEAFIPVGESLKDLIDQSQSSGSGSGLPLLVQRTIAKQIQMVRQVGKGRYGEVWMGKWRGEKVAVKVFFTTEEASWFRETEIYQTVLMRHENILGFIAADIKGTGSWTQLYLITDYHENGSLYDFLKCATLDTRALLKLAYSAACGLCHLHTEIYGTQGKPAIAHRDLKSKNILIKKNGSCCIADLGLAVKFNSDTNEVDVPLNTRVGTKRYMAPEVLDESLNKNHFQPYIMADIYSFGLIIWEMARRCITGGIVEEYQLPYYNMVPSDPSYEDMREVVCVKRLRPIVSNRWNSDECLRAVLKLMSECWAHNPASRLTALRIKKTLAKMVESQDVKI
# Chain of ROCK1 (human) (Q13464 whole entry, looked up): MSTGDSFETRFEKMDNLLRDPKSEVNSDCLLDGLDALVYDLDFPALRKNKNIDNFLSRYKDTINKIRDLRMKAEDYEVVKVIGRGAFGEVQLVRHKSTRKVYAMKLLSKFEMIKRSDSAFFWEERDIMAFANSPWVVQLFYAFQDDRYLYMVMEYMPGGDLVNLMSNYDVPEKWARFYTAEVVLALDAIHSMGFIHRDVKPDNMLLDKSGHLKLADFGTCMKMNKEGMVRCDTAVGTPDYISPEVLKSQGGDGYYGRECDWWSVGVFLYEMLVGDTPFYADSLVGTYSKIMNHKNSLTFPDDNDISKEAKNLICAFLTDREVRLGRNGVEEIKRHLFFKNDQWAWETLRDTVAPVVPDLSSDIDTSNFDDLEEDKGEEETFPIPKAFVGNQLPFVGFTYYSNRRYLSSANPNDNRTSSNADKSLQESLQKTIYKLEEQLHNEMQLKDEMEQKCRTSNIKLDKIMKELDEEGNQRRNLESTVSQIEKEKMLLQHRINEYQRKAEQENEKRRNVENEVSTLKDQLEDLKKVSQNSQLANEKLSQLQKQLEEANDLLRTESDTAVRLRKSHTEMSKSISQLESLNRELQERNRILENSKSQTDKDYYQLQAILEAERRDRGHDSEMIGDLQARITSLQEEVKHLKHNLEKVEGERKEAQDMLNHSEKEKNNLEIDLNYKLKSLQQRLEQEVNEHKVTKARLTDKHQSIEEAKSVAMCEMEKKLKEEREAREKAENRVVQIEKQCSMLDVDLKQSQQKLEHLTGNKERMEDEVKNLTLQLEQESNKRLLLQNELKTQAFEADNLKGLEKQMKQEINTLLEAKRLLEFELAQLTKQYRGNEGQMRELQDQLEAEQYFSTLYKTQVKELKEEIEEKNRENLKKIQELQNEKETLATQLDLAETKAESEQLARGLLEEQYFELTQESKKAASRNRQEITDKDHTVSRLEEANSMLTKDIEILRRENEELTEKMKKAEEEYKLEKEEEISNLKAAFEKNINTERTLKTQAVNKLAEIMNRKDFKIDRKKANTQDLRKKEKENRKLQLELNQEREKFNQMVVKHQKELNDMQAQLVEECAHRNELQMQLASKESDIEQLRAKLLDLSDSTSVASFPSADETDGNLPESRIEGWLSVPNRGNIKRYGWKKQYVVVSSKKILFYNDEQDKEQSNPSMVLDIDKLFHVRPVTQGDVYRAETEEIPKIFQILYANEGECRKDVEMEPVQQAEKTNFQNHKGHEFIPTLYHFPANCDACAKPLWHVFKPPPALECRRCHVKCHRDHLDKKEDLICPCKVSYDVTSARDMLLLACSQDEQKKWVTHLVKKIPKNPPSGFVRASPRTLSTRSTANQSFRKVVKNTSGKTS
# Chain of AURKA (human) (O14965 whole entry, looked up): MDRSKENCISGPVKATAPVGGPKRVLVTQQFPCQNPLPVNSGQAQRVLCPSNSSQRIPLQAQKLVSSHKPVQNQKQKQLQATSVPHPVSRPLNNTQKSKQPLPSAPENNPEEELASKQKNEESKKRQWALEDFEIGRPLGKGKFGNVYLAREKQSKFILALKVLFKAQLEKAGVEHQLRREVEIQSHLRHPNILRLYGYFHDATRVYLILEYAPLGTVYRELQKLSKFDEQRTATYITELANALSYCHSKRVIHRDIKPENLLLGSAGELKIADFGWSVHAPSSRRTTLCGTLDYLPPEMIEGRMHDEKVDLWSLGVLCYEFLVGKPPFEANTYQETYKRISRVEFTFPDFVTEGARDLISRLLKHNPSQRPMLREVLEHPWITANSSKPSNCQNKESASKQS
# Chain of RPS6KB1 (human) (P23443 whole entry, looked up): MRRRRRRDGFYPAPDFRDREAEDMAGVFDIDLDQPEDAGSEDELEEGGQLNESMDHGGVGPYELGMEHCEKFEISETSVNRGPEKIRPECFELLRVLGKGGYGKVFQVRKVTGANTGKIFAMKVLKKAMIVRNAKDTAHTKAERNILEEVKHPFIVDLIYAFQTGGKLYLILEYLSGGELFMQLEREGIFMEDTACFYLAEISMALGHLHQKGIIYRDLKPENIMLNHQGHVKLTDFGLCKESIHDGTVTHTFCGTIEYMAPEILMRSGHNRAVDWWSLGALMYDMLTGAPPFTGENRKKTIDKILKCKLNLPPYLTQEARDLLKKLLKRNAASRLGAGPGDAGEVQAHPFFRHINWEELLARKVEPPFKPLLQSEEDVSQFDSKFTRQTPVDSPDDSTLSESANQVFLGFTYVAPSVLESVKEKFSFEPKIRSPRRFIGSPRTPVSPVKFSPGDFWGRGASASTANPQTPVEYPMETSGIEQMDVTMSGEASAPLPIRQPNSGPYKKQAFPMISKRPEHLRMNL
# Chain of PLK1 (human) (P53350 whole entry, looked up): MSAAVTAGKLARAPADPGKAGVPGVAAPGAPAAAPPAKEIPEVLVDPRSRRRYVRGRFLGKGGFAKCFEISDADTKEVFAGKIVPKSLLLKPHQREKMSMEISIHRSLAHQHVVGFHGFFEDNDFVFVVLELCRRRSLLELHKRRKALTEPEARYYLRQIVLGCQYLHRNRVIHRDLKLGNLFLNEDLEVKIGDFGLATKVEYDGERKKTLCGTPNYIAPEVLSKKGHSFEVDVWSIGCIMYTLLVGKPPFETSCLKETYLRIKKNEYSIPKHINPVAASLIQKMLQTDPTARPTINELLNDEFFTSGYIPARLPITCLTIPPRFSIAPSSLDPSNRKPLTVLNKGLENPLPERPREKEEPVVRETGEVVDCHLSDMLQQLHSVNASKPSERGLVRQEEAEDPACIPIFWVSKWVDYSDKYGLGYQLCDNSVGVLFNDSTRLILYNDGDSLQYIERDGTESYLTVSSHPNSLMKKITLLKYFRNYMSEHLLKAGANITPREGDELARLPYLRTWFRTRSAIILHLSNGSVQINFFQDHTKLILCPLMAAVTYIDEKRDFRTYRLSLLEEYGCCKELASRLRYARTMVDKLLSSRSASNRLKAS
# Chain of CSNK1G1 (human) (Q9HCP0 whole entry, looked up): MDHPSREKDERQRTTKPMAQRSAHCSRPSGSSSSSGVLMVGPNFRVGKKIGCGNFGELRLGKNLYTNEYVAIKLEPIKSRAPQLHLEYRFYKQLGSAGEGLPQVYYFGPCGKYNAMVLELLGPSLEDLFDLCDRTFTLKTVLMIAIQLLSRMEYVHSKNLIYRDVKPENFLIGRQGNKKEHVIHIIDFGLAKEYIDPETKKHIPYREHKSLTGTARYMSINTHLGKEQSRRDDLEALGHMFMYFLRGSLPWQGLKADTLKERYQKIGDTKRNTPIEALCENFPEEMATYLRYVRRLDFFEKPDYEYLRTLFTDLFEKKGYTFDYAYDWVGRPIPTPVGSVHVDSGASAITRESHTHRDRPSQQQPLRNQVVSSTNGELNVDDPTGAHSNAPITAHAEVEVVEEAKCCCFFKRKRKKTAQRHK
smiles,measurement,setting,value
CNC(=O)c1cc(Oc2ccc(NC(=O)Nc3ccc(Cl)c(C(F)(F)F)c3)cc2)cc[n+]1[O-],per cent of control,IKBKE (human),100%
same,per cent of control,SRPK3 (human),86%
same,per cent of control,MAP3K10 (human),88%
same,per cent of control,BMPR1A (human),91%
same,per cent of control,ERBB4 (human),100%
same,per cent of control,PHKG2 (human),100%
same,per cent of control,MAP3K4 (human),93%
same,per cent of control,ACVR1B (human),44%
same,per cent of control,WEE2 (human),94%
same,per cent of control,CDK9 (human),73%
same,per cent of control,RPS6KB1 (human),42%
same,per cent of control,IRAK1 (human),22%
same,per cent of control,PRKD3 (human),83%
same,per cent of control,LATS1 (human),53%
same,per cent of control,AURKA (human),26%
same,per cent of control,MAP2K5 (human),0.1%
same,per cent of control,RPS6KA1 KD1 (human),91%
same,per cent of control,MAP4K5 (human),0.45%
same,per cent of control,RIOK2 (human),42%
same,per cent of control,PLK1 (human),100%
same,per cent of control,TLK2 (human),100%
same,per cent of control,CDKL5 (human),27%
same,per cent of control,MAPK1 (human),100%
same,per cent of control,ROCK1 (human),23%
same,per cent of control,PLK2 (human),77%
same,per cent of control,STK35 (human),40%
same,per cent of control,CLK4 (human),47%
same,per cent of control,PRKD2 (human),83%
same,per cent of control,ALK (human),94%
same,per cent of control,CAMK1G (human),76%
same,per cent of control,CHEK2 (human),21%
same,per cent of control,[1],0%
same,per cent of control,PIK3C2G (human),100%
same,per cent of control,TRPM6 (human),100%
same,per cent of control,MAP2K1 (human),80%
same,per cent of control,SLK (human),9.4%
same,per cent of control,MYLK (human),100%
same,per cent of control,BTK (human),30%
same,per cent of control,PIP5K1A (human),100%
same,per cent of control,CSNK1G1 (human),96%
same,per cent of control,EPHB2 (human),19%
CNC(=O)c1cc(Oc2ccc(NC(=O)Nc3ccc(Cl)c(C(F)(F)F)c3)cc2)ccn1,per cent of control,IKBKE (human),100%
same,per cent of control,SRPK3 (human),84%
same,per cent of control,MAP3K10 (human),85%
same,per cent of control,BMPR1A (human),100%
same,per cent of control,ERBB4 (human),92%
same,per cent of control,PHKG2 (human),100%
same,per cent of control,MAP3K4 (human),94%
same,per cent of control,ACVR1B (human),56%
same,per cent of control,WEE2 (human),100%
same,per cent of control,CDK9 (human),62%
same,per cent of control,RPS6KB1 (human),46%
same,per cent of control,IRAK1 (human),76%
same,per cent of control,PRKD3 (human),70%
same,per cent of control,LATS1 (human),79%
same,per cent of control,AURKA (human),83%
same,per cent of control,MAP2K5 (human),0.35%
same,per cent of control,RPS6KA1 KD1 (human),84%
same,per cent of control,MAP4K5 (human),1.5%
same,per cent of control,RIOK2 (human),48%
same,per cent of control,PLK1 (human),100%
same,per cent of control,TLK2 (human),99%
same,per cent of control,CDKL5 (human),67%
same,per cent of control,MAPK1 (human),100%
same,per cent of control,ROCK1 (human),84%
same,per cent of control,PLK2 (human),100%
same,per cent of control,STK35 (human),7.8%
same,per cent of control,CLK4 (human),30%
same,per cent of control,PRKD2 (human),100%
same,per cent of control,ALK (human),100%
same,per cent of control,CAMK1G (human),87%
same,per cent of control,CHEK2 (human),63%
same,per cent of control,[1],0%
same,per cent of control,PIK3C2G (human),100%
same,per cent of control,TRPM6 (human),100%
same,per cent of control,MAP2K1 (human),95%
same,per cent of control,SLK (human),9.2%
same,per cent of control,MYLK (human),100%
same,per cent of control,BTK (human),62%
same,per cent of control,PIP5K1A (human),100%
same,per cent of control,CSNK1G1 (human),100%
same,per cent of control,EPHB2 (human),12%
